Results from patent US12059416B2, “Combinations of a H3 antagonist and a noradrenaline reuptake inhibitor, and the therapeutical uses thereof” (BIOPROJET, priority 2018, dated 2024).
Counter-ions that a name gives are not always drawn.

What was measured:
male Wistar rats = experiment: Effect on sleep/wake (EEG telemetry) in rats; assay type: in vivo, rat; settings: oral gavage, over 12 hours
Experimental: Effects on sleep/wake parameters were investigated in male Wistar rats. Briefly, rats were stereotaxically implanted with cortical electrodes for electroencephalogram (EEG) recording using a telemetric system (Data Sciences Int., Saint Paul, MN, USA) for the acquisition, transfer and storage of motor activity and EEG signals. EEG signals were analysed according to a procedure adapted from the algorithm proposed by R. P. Louis et al. (J. Neurosci. Methods, 2004, 133, 71-80) and the analysis of vigilance stages according to H. Kleinlogel (Neuropsychobiol. 1990-91, 23, 197-204) after a fast Fourier transformation of 8-second duration EEG epochs. This allows the determination for each epoch of its vigilance stage (i.e. active wakefulness, quiet wakefulness, light or deep slow wave sleeps and REM sleep also named paradoxical sleep). Rats received orally (gavage) vehicle, drug or drug combination around 30 minutes before the light onset. Then, EEG signals were continuously recorded and further integrated over the 12-hour diurnal phase.
Effects on sleep/wake recorded in rats of drugs alone or combined are presented in the FIG. 1 (Pitolisant/duloxetine), FIG. 2 (BP1.3656B/duloxetine), FIG. 3 (pitolisant/reboxetine) and FIG. 4 (pitolisant/atomoxetine): […]

[1] = system: noradrenaline release in the prefrontal cortex; experiment: Noradrenaline release in the prefrontal cortex, in vivo microdialysis; settings: rat prefrontal cortex, oral gavage, maximal increase recorded over 150 min post dosing, mean ± SEM
Excerpt: Effects on noradrenaline release in the prefrontal cortex were investigated in vivo by microdialysis in vigil male Wistar rats as described by AD Medhurst et al. (J. Pharmacol. Exp. Ther. 2007, 321, 1032-1045) and G. Flik et al. (J. Mol. Neurosci. 2015, 56, 320-328). Briefly, anaesthetized rats were implanted with a guide cannulae for sampling in the prefrontal cortex. After at least one week of recovery post-surgery, the microdialysis probe was inserted in the guide cannulae and perfused continuously with artificial cerebrospinal fluid (CSF). The rat was habituated to the microdialysis cage for ˜3 hours. Then, rats received orally (gavage) vehicle, drug or drug combination. CSF samples collected every 30 minutes were analysed for their noradrenaline content by HPLC coupled to a electrochemical detection. Noradrenaline sample levels were expressed in percentage of basal noradrenaline release recorded over 1.5 hour before vehicle or drug treatment.

SMILES	decrease in the REM sleep (male Wistar rats)	Maximal increase (% of basal noradrenaline release) [1]
CNCC[C@H](Oc1cccc2ccccc12)c1cccs1 [duloxetine]	−23%	+113 ± 31%
Clc1ccc(CCCOCCCN2CCCCC2)cc1 [pitolisant, monohydrochloride salt of 1-{3-[3-(4-chlorophenyl)propoxy]propyl}piperidine]	does not have any significant effect	+148 ± 49%
